Experimental data as given in patent US12168650B2, “Crystalline forms of 3-(5-(2-hydroxy-2-methylpropoxy)-6-methylpyrazin-2-yl)-1H-indole-7-carbonitrile” (NIDO BIOSCIENCES, INC., priority 2022, dated 2024).

Columns and labels:
[1] = Stability of Form C (Tables 5A-5F); format: physicochemical
[2] = Hygroscopicity by dynamic vapor sorption (DVS); format: physicochemical
Method: Dynamic vapor sorption (DVS) was performed on an Intrinsic, Advantage or Adventure with an oven temperature of 25° C. using water as a solvent. The sample mass was about 5-10 mg using the following method: • Cycle: 40-0-95-0-40% RH • Stage Step: 10% • Equilibrium: 0.002 dm/dt (%/min) • Minimum dm/dt stability duration: 60 min • Maximum dm/dt stage time: 360 min. Analysis of Polymorphs
Hygroscopicity of Form C was evaluated by dynamic vapor sorption (DVS) test at 25° C. Form C is non-hygroscopic below 90% relative humidity (RH). Form C absorbs about 0.2% water in 95% RH at 25° C.

[3] = Competitive equilibration experiments of anhydrates; settings: at both 25° C. and 50° C.
Method: Relative stability of the anhydrate Forms A, C, H and J was investigated with competitive equilibration experiments.
Relative stability of the anhydrates Forms C, K and L was investigated with competitive equilibration experiments.
To determine relative stability of anhydrates, competitive equilibration experiments were conducted in different solvent systems.
About 2 mg of each anhydrate was added to 0.3-0.4 mL saturated solutions of selected solvents. Obtained suspensions were stirred at 25° C. for 3-10 days, respectively. Solid parts (wet cakes) were isolated by centrifugation filtration and investigated by XRPD.

SMILES: Cc1nc(-c2c[nH]c3c(C#N)cccc23)cnc1OCC(C)(C)O [Form C, 3-(5-(2-hydroxy-2-methylpropoxy)-6-methylpyrazin-2-yl)-1H-indole-7-carbonitrile]
- Impurities, HPLC: A ([1]; 25° C./60% RH, 01 Month): <0.05 area %
- Impurities, HPLC: B ([1]; 25° C./60% RH, 01 Month): <0.05 area %
- Impurities, HPLC: C ([1]; 25° C./60% RH, 01 Month): <0.05 area %
- Impurities, HPLC: D ([1]; 25° C./60% RH, 01 Month): <0.05 area %
- Impurities, HPLC: RRT 1.07 ([1]; 25° C./60% RH, 01 Month): 0.71 area %
- Impurities, HPLC: SM1 ([1]; 25° C./60% RH, 01 Month): <0.05 area %
- Impurities, HPLC: SM2 ([1]; 25° C./60% RH, 01 Month): <0.05 area %
- Impurities, HPLC: Unidentified impurity ([1]; 25° C./60% RH, 01 Month): <0.05 area %
- Purity, HPLC ([1]; 25° C./60% RH, 01 Month): 99.3 area %
- Water content ([1]; 25° C./60% RH, 01 Month): <0.05 wt %
- Impurities, HPLC: A ([1]; 25° C./60% RH, 03 Month): <0.05 area %
- Impurities, HPLC: B ([1]; 25° C./60% RH, 03 Month): <0.05 area %
- Impurities, HPLC: C ([1]; 25° C./60% RH, 03 Month): <0.05 area %
- Impurities, HPLC: D ([1]; 25° C./60% RH, 03 Month): <0.05 area %
- Impurities, HPLC: RRT 1.07 ([1]; 25° C./60% RH, 03 Month): 0.77 area %
- Impurities, HPLC: SM1 ([1]; 25° C./60% RH, 03 Month): <0.05 area %
- Impurities, HPLC: SM2 ([1]; 25° C./60% RH, 03 Month): <0.05 area %
- Impurities, HPLC: Unidentified impurity ([1]; 25° C./60% RH, 03 Month): <0.05 area %
- Purity, HPLC ([1]; 25° C./60% RH, 03 Month): 99.2 area %
- Water content ([1]; 25° C./60% RH, 03 Month): <0.05 wt %
- Impurities, HPLC: A ([1]; 25° C./60% RH, 06 Month): <0.05 area %
- Impurities, HPLC: B ([1]; 25° C./60% RH, 06 Month): <0.05 area %
- Impurities, HPLC: C ([1]; 25° C./60% RH, 06 Month): <0.05 area %
- Impurities, HPLC: D ([1]; 25° C./60% RH, 06 Month): <0.05 area %
- Impurities, HPLC: RRT 1.07 ([1]; 25° C./60% RH, 06 Month): 0.73 area %
- Impurities, HPLC: SM1 ([1]; 25° C./60% RH, 06 Month): <0.05 area %
- Impurities, HPLC: SM2 ([1]; 25° C./60% RH, 06 Month): <0.05 area %
- Impurities, HPLC: Unidentified impurity ([1]; 25° C./60% RH, 06 Month): <0.05 area %
- Purity, HPLC ([1]; 25° C./60% RH, 06 Month): 99.3 area %
- Water content ([1]; 25° C./60% RH, 06 Month): <0.05 wt %
- Assay, HPLC ([1]; 25° C./60% RH, 09 Month): 99.4 wt %
- Impurities, HPLC: A ([1]; 25° C./60% RH, 09 Month): <0.05 area %
- Impurities, HPLC: B ([1]; 25° C./60% RH, 09 Month): <0.05 area %
- Impurities, HPLC: C ([1]; 25° C./60% RH, 09 Month): <0.05 area %
- Impurities, HPLC: D ([1]; 25° C./60% RH, 09 Month): <0.05 area %
- Impurities, HPLC: RRT 1.07 ([1]; 25° C./60% RH, 09 Month): 0.72 area %
- Impurities, HPLC: SM1 ([1]; 25° C./60% RH, 09 Month): <0.05 area %
- Impurities, HPLC: SM2 ([1]; 25° C./60% RH, 09 Month): <0.05 area %
- Impurities, HPLC: Unidentified impurity ([1]; 25° C./60% RH, 09 Month): <0.05 area %
- Purity, HPLC ([1]; 25° C./60% RH, 09 Month): 99.3 area %
- Water content ([1]; 25° C./60% RH, 09 Month): <0.05 wt %
- Assay, HPLC ([1]; 25° C./60% RH, 12 Month): 99.4 wt %
- Impurities, HPLC: A ([1]; 25° C./60% RH, 12 Month): <0.05 area %
- Impurities, HPLC: B ([1]; 25° C./60% RH, 12 Month): <0.05 area %
- Impurities, HPLC: C ([1]; 25° C./60% RH, 12 Month): <0.05 area %
- Impurities, HPLC: D ([1]; 25° C./60% RH, 12 Month): <0.05 area %
- Impurities, HPLC: RRT 1.07 ([1]; 25° C./60% RH, 12 Month): 0.74 area %
- Impurities, HPLC: SM1 ([1]; 25° C./60% RH, 12 Month): <0.05 area %
- Impurities, HPLC: SM2 ([1]; 25° C./60% RH, 12 Month): <0.05 area %
- Impurities, HPLC: Unidentified impurity ([1]; 25° C./60% RH, 12 Month): <0.05 area %
- Purity, HPLC ([1]; 25° C./60% RH, 12 Month): 99.3 area %
- Water content ([1]; 25° C./60% RH, 12 Month): <0.05 wt %
- Impurities, HPLC: A ([1]; 25° C./60% RH, Initial): <0.05 area %
- Impurities, HPLC: B ([1]; 25° C./60% RH, Initial): <0.05 area %
- Impurities, HPLC: C ([1]; 25° C./60% RH, Initial): <0.05 area %
- Impurities, HPLC: D ([1]; 25° C./60% RH, Initial): <0.05 area %
- Impurities, HPLC: RRT 1.07 ([1]; 25° C./60% RH, Initial): 0.77 area %
- Impurities, HPLC: SM1 ([1]; 25° C./60% RH, Initial): <0.05 area %
- Impurities, HPLC: SM2 ([1]; 25° C./60% RH, Initial): <0.05 area %
- Impurities, HPLC: Unidentified impurity ([1]; 25° C./60% RH, Initial): <0.05 area %
- Purity, HPLC ([1]; 25° C./60% RH, Initial): 99.2 area %
- Water content ([1]; 25° C./60% RH, Initial): <0.05 wt %
- Assay, HPLC ([1]; 40° C./75% RH, 01 Month): 99.7 wt %
- Impurities, HPLC: A ([1]; 40° C./75% RH, 01 Month): <0.05 area %
- Impurities, HPLC: B ([1]; 40° C./75% RH, 01 Month): <0.05 area %
- Impurities, HPLC: C ([1]; 40° C./75% RH, 01 Month): <0.05 area %
- Impurities, HPLC: D ([1]; 40° C./75% RH, 01 Month): <0.05 area %
- Impurities, HPLC: RRT 1.07 ([1]; 40° C./75% RH, 01 Month): 0.70 area %
- Impurities, HPLC: SM1 ([1]; 40° C./75% RH, 01 Month): <0.05 area %
- Impurities, HPLC: SM2 ([1]; 40° C./75% RH, 01 Month): <0.05 area %
- Impurities, HPLC: Unidentified impurity ([1]; 40° C./75% RH, 01 Month): <0.05 area %
- Purity, HPLC ([1]; 40° C./75% RH, 01 Month): 99.3 area %
- Water content ([1]; 40° C./75% RH, 01 Month): <0.05 wt %
- Assay, HPLC ([1]; 40° C./75% RH, 03 Month): 98.7 wt %
- Impurities, HPLC: A ([1]; 40° C./75% RH, 03 Month): <0.05 area %
- Impurities, HPLC: B ([1]; 40° C./75% RH, 03 Month): <0.05 area %
- Impurities, HPLC: C ([1]; 40° C./75% RH, 03 Month): <0.05 area %
- Impurities, HPLC: D ([1]; 40° C./75% RH, 03 Month): <0.05 area %
- Impurities, HPLC: RRT 1.07 ([1]; 40° C./75% RH, 03 Month): 0.77 area %
- Impurities, HPLC: SM1 ([1]; 40° C./75% RH, 03 Month): <0.05 area %
- Impurities, HPLC: SM2 ([1]; 40° C./75% RH, 03 Month): <0.05 area %
- Impurities, HPLC: Unidentified impurity ([1]; 40° C./75% RH, 03 Month): <0.05 area %
- Purity, HPLC ([1]; 40° C./75% RH, 03 Month): 99.2 area %
- Water content ([1]; 40° C./75% RH, 03 Month): <0.05 wt %
- Assay, HPLC ([1]; 40° C./75% RH, 06 Month): 99.1 wt %
- Impurities, HPLC: A ([1]; 40° C./75% RH, 06 Month): <0.05 area %
- Impurities, HPLC: B ([1]; 40° C./75% RH, 06 Month): <0.05 area %
- Impurities, HPLC: C ([1]; 40° C./75% RH, 06 Month): <0.05 area %
- Impurities, HPLC: D ([1]; 40° C./75% RH, 06 Month): <0.05 area %
- Impurities, HPLC: RRT 1.07 ([1]; 40° C./75% RH, 06 Month): 0.73 area %
- Impurities, HPLC: SM1 ([1]; 40° C./75% RH, 06 Month): <0.05 area %
- Impurities, HPLC: SM2 ([1]; 40° C./75% RH, 06 Month): <0.05 area %
- Impurities, HPLC: Unidentified impurity ([1]; 40° C./75% RH, 06 Month): <0.05 area %
- Purity, HPLC ([1]; 40° C./75% RH, 06 Month): 99.3 area %
- Water content ([1]; 40° C./75% RH, 06 Month): <0.05 wt %
- Assay, HPLC ([1]; 40° C./75% RH, Initial): 99.4 wt %
- Impurities, HPLC: A ([1]; 40° C./75% RH, Initial): <0.05 area %
- Impurities, HPLC: B ([1]; 40° C./75% RH, Initial): <0.05 area %
- Impurities, HPLC: C ([1]; 40° C./75% RH, Initial): <0.05 area %
- Impurities, HPLC: D ([1]; 40° C./75% RH, Initial): <0.05 area %
- Impurities, HPLC: RRT 1.07 ([1]; 40° C./75% RH, Initial): 0.77 area %
- Impurities, HPLC: SM1 ([1]; 40° C./75% RH, Initial): <0.05 area %
- Impurities, HPLC: SM2 ([1]; 40° C./75% RH, Initial): <0.05 area %
- Impurities, HPLC: Unidentified impurity ([1]; 40° C./75% RH, Initial): <0.05 area %
- Purity, HPLC ([1]; 40° C./75% RH, Initial): 99.2 area %
- Water content ([1]; 40° C./75% RH, Initial): <0.05 wt %
- Stability ([1]; conditions where the temperature and relative humidity are altered): stable
- Form after the DVS test ([2]; DVS at 25° C.): still in Form C
- Hygroscopicity ([2]; DVS at 25° C., below 90% relative humidity (RH)): non-hygroscopic
- Water absorbed ([2]; DVS, 95% RH at 25° C.): about 0.2%
- Relative thermodynamic stability of anhydrates [3]: thermodynamically stable anhydrate
